“Also recorded” adds a separate entry of the source. Read-outs that look alike come from different tables or passages of the source.
Assays:
[1] = tested on: A2780 cells; assay: MTT cytotoxicity assay, A2780; assay type: cell-based, human; conditions: A2780, 72 h exposure, MTT; read-out: IC50 (median growth inhibitory concentration)
Procedure: (§1) Platinum(IV) complexes were dissolved in DMSO to stock solutions of 1 mg/mL just before the experiment, and a calculated amount of drug solution was added to the cell growth medium to a final solvent concentration of 0.5%, which had no discernible effect on cell killing. Cisplatin (CDDP) and oxaliplatin (OXP) were dissolved just before the experiment in a 0.9% NaCl solution.
(§2) Human prostate adenocarcinoma (PC3) cells were obtained from European Collection of Cell Cultures (ECACC, Salisbury, UK). Human ovarian cancer cell lines A2780 and its cisplatin resistant variant, A2780cisR, were kindly provided by Prof.
(§3) Cancer Res. 1988, 48, 589-601]. […] Triplicate cultures were established for each treatment.

[2] = tested on: A2780cisR cells; assay: MTT cytotoxicity assay, A2780cisR (cisplatin resistant); assay type: cell-based, human; conditions: for IC50: 72 h exposure, MTT, read-out: IC50 (median growth inhibitory concentration); for resistance factor: ratio IC50 resistant (A2780cisR) / sensitive (A2780) cells
Procedure: as §1, §2, §3

[3] = tested on: MCF-7 cells; assay: MTT cytotoxicity assay, MCF-7; assay type: cell-based, human; conditions: MCF-7, 72 h exposure, MTT; read-out: IC50 (median growth inhibitory concentration)
Procedure: (§4) Cisplatin (CDDP) and oxaliplatin (OXP) were dissolved just before the experiment in a 0.9% NaCl solution.
as §2
(§5) Triplicate cultures were established for each treatment.

[4] = tested on: A549 cells; assay: MTT cytotoxicity assay, A549; assay type: cell-based, human; conditions: A549, 72 h exposure, MTT; read-out: IC50 (median growth inhibitory concentration)
Procedure: as §4, §2, §5

[5] = tested on: HCT-15 cells; assay: MTT cytotoxicity assay, HCT-15; assay type: cell-based, human
Procedure: (§6) Cisplatin (CDDP) and oxaliplatin (OXP) were dissolved just before the experiment in a 0.9% NaCl solution. […]
as §3
(§7) MTT assay. […] Triplicate cultures were established for each treatment.
(§8) The two dimers, 3a and 3b, as well as compounds 1a and 2a were screened against six human cancer cell lines representative of lung (H157), colon (HCT-15), cervical (A431), ovarian (2008) and pancreatic (PSN1) cancers, along with melanoma (A375). Cytotoxicity was evaluated by means of the MTT test after 72 h of treatment and the in vitro antitumor potential of newly synthesized derivatives was compared to that of the reference metallo-drugs CDDP and OXP.

[6] = tested on: PC3 cells; assay: MTT cytotoxicity assay, PC3; assay type: cell-based, human; conditions: PC3, 72 h exposure, read-out: IC50 (median growth inhibitory concentration)
Procedure: as §4, §2, §5

[7] = tested on: A498 cells; assay: MTT cytotoxicity assay, A498; assay type: cell-based, human; conditions: A498, 72 h exposure, read-out: IC50 (median growth inhibitory concentration)
Procedure: as §1, §2, §3

[8] = tested on: BxPC3 cells; assay: MTT cytotoxicity assay, BxPC3; assay type: cell-based, human; conditions: BxPC3, 72 h exposure, MTT; read-out: IC50 (median growth inhibitory concentration)
[9] = tested on: A375 cells; assay: MTT cytotoxicity assay, A375; assay type: cell-based, human
Procedure: as §6, §3, §7, §8

[10] = octanol/water partition, shake-flask method; assay type: physicochemical
Procedure: To quantify the hydrophobicity of the platinum complexes, partition coefficients (log P) values for octanol/water partition were measured using the shake-flask method.

[11] = tested on: nine cancer cell lines; assay: MTT cytotoxicity, over the nine cancer cell lines; conditions: for IC50: read-out: average IC50 values for the nine cancer cell lines, mean over nine cell lines, 72 h MTT
[12] = tested on: Histone deacetylase (HDAC); assay: Histone deacetylase assay (Fluor-de-Lys) in MCF-7 cells; assay type: cell-based, human; conditions: MCF-7, 24 h
Procedure: Histone deacetylase activity was determined using Fluor-de-Lys® HDAC fluorometric activity assay kit (Enzo Life Sciences International, Inc., Plymount Meeting, Pa., U.S.A.). […] Fluorescence was measured using a Fluoroskan Ascent FL (Labsystem, Finland) plate reader, with excitation at 360 nm and emission at 460 nm. For comparison purpose, the HDAC activity was also measured in nuclear extracts of MCF-7-treated cells by means of the same fluorometric activity assay kit. In this latter case, MCF-7 nuclear extracts were obtained as follow: cell pellets were re-suspended in lysis buffer [Tris.HCl (10 mM, pH 8.0), KCl (60 mM), EDTA (1.2 mM), DTT (1 mM), PMSF (0.05 mM), NP-40 (0.05%)] and kept on ice for 10 min. Subsequently, samples were centrifuged at 1000 g and re-suspended in the nuclear extraction buffer [Tris.HCl (20 mM, (pH 8.0), NaCl (420 mM), MgCl2 (0.7 mM), EDTA (0.25 mM), glycerol (25%)] for 30 min at 4° C., and then centrifuged at 15000 g for 15 min at 4° C.
The complexes described here were specifically designed to release either VPA of PhB inside the cells in the hope that they will inhibit HDAC activity paving the way for more efficient DNA platination. Thus, in addition to measuring the levels of DNA platination, we also measured the ability of these pro-drugs to inhibit HDAC activity in cells. […] For comparison purposes, the HDAC inhibitory effect determined by tested complexes was also assayed in isolated nuclei of MCF-7 treated cells (FIG. 3B).
The HDAC activity was determined by the Fluor de Lys® Fluorescent Cellular Activity Assay (Enzo Life Sciences).
Also, MCF-7 cells were incubated for 24 h with increasing concentrations of compounds I-VIII and their HDAC activity was determined. The IC50 values for the inhibition of HDAC activity in the cells are depicted in FIG. 3C.

[13] = tested on: 2008 cells; assay: MTT cytotoxicity assay, 2008; assay type: cell-based, human; conditions: 2008, 72 h, MTT
Procedure: as §7, §8

[14] = tested on: A431 cells; assay: MTT cytotoxicity assay, A431; assay type: cell-based, human; conditions: A431, 72 h
Procedure: as §7, §8

[15] = tested on: H157 cells; assay: MTT cytotoxicity assay, H157; assay type: cell-based, human; conditions: H157, 72 h
Procedure: as §7, §8

[16] = tested on: PSN1 cells; assay: MTT cytotoxicity assay, PSN1; assay type: cell-based, human; conditions: PSN1, 72 h, MTT
Procedure: as §7, §8

[17] = tested on: HCT-15 spheroids; assay: 3D spheroid APH assay, HCT-15; assay type: cell-based, human; conditions: HCT-15 spheroids, 72 h, APH test
Excerpt: (§9) Acid phosphatase (APH) assay. A modified APH assay, which is based on quantification of cytosolic acid phosphatase activity, was used for determining cell viability in spheroids. […] Triplicate cultures were established for each treatment. […] Evaluation was based on means from at least four independent experiments.
(§10) In order to improve the predictive capacity of the in vitro assays, we tested the activity in three three-dimensional (3D) cell cultures; human colon cancer cells, HCT-15, and human pancreatic cancer cells, KRAS wild type BxPC3 cells KRAS mutated PSN-1 cells. The cancer spheroids were treated with 3a and 3b for 72 h and the cell viability was assessed by means of the APH assay (Table 6). For comparison purposes, the cytotoxicities of CDDP and OXP were evaluated under the same experimental conditions.

[18] = tested on: BxPC3 spheroids; assay: 3D spheroid APH assay, BxPC3; assay type: cell-based, human; conditions: 72 h, APH test
Excerpt: as §9, §10

[19] = tested on: PSN-1 spheroids; assay: 3D spheroid APH assay, PSN-1; assay type: cell-based, human; conditions: PSN-1 spheroids, 72 h, APH test
Excerpt: as §9, §10

[20] = HCT-15, 72 h exposure, MTT (Table 1), read-out: IC50 (median growth inhibitory concentration)
[21] = A375, 72 h exposure, MTT (Table 1), read-out: IC50 (median growth inhibitory concentration)
[22] = HCT-15, 72 h, MTT (Table 5), read-out: IC50 (μM) ± S.D.
[23] = A375, 72 h, MTT (Table 5), read-out: IC50 (μM) ± S.D.

| Molecule | IC50 [1] | IC50 ([2]; A2780cisR) | resistance factor [2] | IC50 [3] | IC50 [4] | IC50 [5, 20] | IC50 [6] | IC50 [7] | IC50 [8] | IC50 [9, 21] | IC50 [11] | IC50 [5, 22] | IC50 [9, 23] | IC50 [14] | IC50 [16] | further results |
| --- | --- | --- | --- | --- | --- | --- | --- | --- | --- | --- | --- | --- | --- | --- | --- | --- |
| CCCC(CCC)C(=O)[O][Pt]12([O]C(=O)C(CCC)CCC)([NH]C3CCCCC3[NH]1)[O]C(=O)C(=O)[O]2 (stereo not shown) [III, [Pt(DACH)(C8H15O2)2(ox)]] | 1.3 ± 0.2 µM | 8.8 ± 2.1 µM | 6.8 | 5.7 ± 0.9 µM | 20.5 ± 2.14 µM | 16.4 ± 1.63 µM | 10.1 ± 1.17 µM | 5.21 ± 1.1 µM | 14.4 ± 2.16 µM | 4.17 ± 0.87 µM |  |  |  |  |  |  |
| CCCC(CCC)C(=O)[O][Pt]([NH2])([NH2])([Cl])([Cl])[O]C(C)=O [II, Pt(NH3)2Cl2(C2H3O2)(C8H15O2)]] | 1.02 ± 0.6 µM | 1.62 ± 0.3 µM | 1.6 | 5.74 ± 1.1 µM | 8.36 ± 1.14 µM | 6.36 ± 1.03 µM | 7.32 ± 1.24 µM | 4.21 ± 0.95 µM | 3.54 ± 0.66 µM | 2.17 ± 0.53 µM | 4.48 µM |  |  |  |  | Log P [10]: 0.17 ± 0.02; fold reduction in potency compared with ctc-[Pt(NH3)2(VPA)2Cl2] ([11]; range over cell lines): 1.7-7.9 fold |
| O=C1[O][Pt]2([NH][C@@H]3CCCC[C@H]3[NH]2)[O]C1=O [OXP, oxaliplatin, reference compound] | 0.52 ± 0.27 µM | 4.2 ± 1.6 µM |  | 3.36 ± 0.2 µM | 1.46 ± 0.31 µM | 1.15 ± 0.43 µM | 5.24 ± 0.86 µM | 7.94 ± 1.04 µM | 4.15 ± 0.93 µM | 6.3 ± 1.11 µM | 4.9 µM | 1.15 ± 0.43 µM | 6.3 ± 2.01 µM | 3.06 ± 0.88 µM | 8.25 ± 3.42 µM | effect on HDAC activity (in words) ([12]; IC50 concentrations): not effective in modifying HDAC activity; IC50 [13]: 1.53 ± 0.88 µM; IC50 [15]: 5.99 ± 1.85 µM; IC50 [17]: 36.5 ± 3.12 µM; IC50 [18]: 75.2 ± 6.91 µM; IC50 [19]: 59.7 ± 8.52 µM |
| C1CCNCC1.CCCC(CCC)C(=O)[O][Pt]([OH])([Cl])[Cl].CCCCN [Compound V, trans-[Pt(n-butylamine)(VPA)(OH) (piperidine) Cl2]] | 1.18 ± 0.33 µM | 1.29 ± 0.29 µM | 1.1 | 8.8 ± 1.48 µM | 15.5 ± 1.13 µM | 14.4 ± 2.05 µM | 16.8 ± 1.41 µM | 8.64 ± 0.95 µM | 4.43 ± 1.94 µM | 12.4 ± 2.93 µM | 9.27 µM |  |  |  |  | fold more potent/effective than cisplatin ([2]; A2780cisR): roughly 11 fold |
| c,c,t-[Pt(NH3)2Cl2(DCA)(GABA)](TFA) [Compound 1a] |  |  |  |  |  |  |  |  |  |  |  | 12.5 ± 3.58 µM | 2.81 ± 0.21 µM | 4.98 ± 1.63 µM | 4.74 ± 2.87 µM |  |
| O=C(O)CCCc1ccccc1 [Compound 4-PB, 4-phenylbutyric acid, reference compound] |  |  |  |  |  |  |  |  |  |  |  |  |  |  |  | IC50 for cellular inhibition of HDAC activity (in words) ([12]; increasing concentrations): significantly higher; cytotoxicity IC50 values (in words) ([11]; uncoordinated ligands, listed as PhB): millimolar range; also recorded: mM range |

— patent US20190290656A1, “PT(IV) PRODRUGS” (YISSUM RESEARCH DEVELOPMENT COMPANY OF THE HEBREW …, priority 2015, published 2019)
